Assay results as given in PMC2074469.

Tests used:
aromatase [1] = target: T1, aromatase (Homo sapiens, UniProt P11511); experiment: Serum oestradiol suppression in healthy post-menopausal female volunteers (trials 1 and 2); type: in vivo; conditions: for women with serum oestradiol below the limit of detection of the assay: limit of detection 3 pmol l-1; for mean BS oestradiol concentration 24 h after dosing on days 13 and 14, adjusted geometric mean / BS oestradiol AUC days 1-14, adjusted geometric mean: baseline-scaled; for BS oestradiol AUC days 1-14, adjusted geometric mean: normalised by time; for mean post-dose scaled oestradiol suppression compared with baseline: mean of 24 h after doses on days 13 and 14
T1 construct: from tissue; host or cells: peripheral tissues of healthy post-menopausal female volunteers (in vivo; serum oestrogens measured)
T1 sequence (P11511 1-503): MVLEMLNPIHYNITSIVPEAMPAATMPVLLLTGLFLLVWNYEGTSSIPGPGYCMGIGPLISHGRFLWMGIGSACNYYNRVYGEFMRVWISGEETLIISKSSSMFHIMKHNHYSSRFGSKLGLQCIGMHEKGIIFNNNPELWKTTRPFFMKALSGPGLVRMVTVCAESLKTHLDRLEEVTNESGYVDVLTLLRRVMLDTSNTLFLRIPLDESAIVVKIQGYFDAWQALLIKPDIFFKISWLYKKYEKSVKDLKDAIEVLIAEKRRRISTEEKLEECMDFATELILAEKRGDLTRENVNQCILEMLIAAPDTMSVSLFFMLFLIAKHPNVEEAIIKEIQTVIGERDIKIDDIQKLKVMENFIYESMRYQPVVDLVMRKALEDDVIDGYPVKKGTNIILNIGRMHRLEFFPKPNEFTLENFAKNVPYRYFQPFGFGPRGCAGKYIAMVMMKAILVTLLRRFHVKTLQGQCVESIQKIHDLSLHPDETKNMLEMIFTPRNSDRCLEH
Protocol: (§1) Summary Two multiple-dose studies were conducted in healthy post-menopausal female volunteers to investigate the pharmacokinetics and effects on endocrinology of Arimidex (ZD1033). Volunteers in the first trial were dosed with 3 mg of ZD1033 daily over 10 days to assess the effects on endocrinology of ZD1033 and establish the pharmacokinetic profile. In the second trial volunteers received 14 daily doses of either 0.5 or 1.0 mg of ZD1033 to assess the pharmacokinetics of ZD1033 and the effects of low doses of ZD1033 on serum oestradiol concentrations. […] Keywords: Arimidex; aromatase inhibitor; oestrogen Breast cancer is the most common type of cancer in women, accounting for 10% of all female cancers. […] ZD1033 is an achiral benzyltriazole derivative, 2,2[5-(1 H- 12,4-triazol- I -ylmethyl)- 1,3-phenylene] bis (2- methyl-propriononitrile) (Figure 1). […] ZD1033 is currently being evaluated in identical phase III efficacy and tolerability studies vs megestrol acetate in post- menopausal women with advanced breast cancer in the USA and Europe. This paper describes two studies that investigated the pharmacokinetic profile, selectivity, tolerability and efficacy in oestradiol suppression of multiple doses of ZD1033. The objective of the studies was to determine the minimum dose required for maximal suppression of circulating oestradiol, while retaining selectivity for the aromatase enzyme. […] Methods The two trials were randomised, double-blind, placebo- controlled multiple-dose studies in healthy post-menopausal female volunteers aged between 45 and 62 years (inclusive). Both trials had the same entry criteria and were of similar design. In the first study (trial 1), a total of eight volunteers were given eight doses of 3 mg of ZD1033 over 10 days to assess tolerability, pharmacokinetics and effects on endocrinology. In the second study (trial 2) a total of 14 volunteers were given 0.5 and 1 mg doses of ZD1033 daily for 14 days to assess the tolerability, pharmacokinetics and effect on serum oestradiol concentrations only. […] The key inclusion criteria were: at least one intact ovary; cervical smear negative for malignancy within the previous 12 months; normal clinical laboratory parameters and; normal clinical examination. Key exclusion criteria were a history of malignant breast disease or previous hysterectomy as a result of malignancy. […] A dose of 3 mg ZD1033 or matching placebo was then given on the following 7 consecutive days (study days 4-10). […] Samples for assay of serum aldosterone, cortisol, 17- hydroxyprogesterone (17-HP), dehydroepiandrosterone sul- phate (DHEA-S), luteinising hormone (LH), FSH and adrenocorticotrophic hormone (ACTH) were collected before and 3 h after dosing on study days 1 and 10 of both treatment periods. Additional samples for cortisol assay were also collected before dosing on study days 3, 5, 7 and 9 in both treatment periods. An ACTH stimulation test was performed 3 h after the dose on study day 10.

aromatase [2] = target: T1, aromatase; experiment: Serum oestrone suppression, trial 1 (3 mg of ZD1033 vs placebo); type: in vivo
Protocol: as §1

adrenal steroidogenesis = experiment: Serum adrenal steroid concentrations, trial 1 (cortisol, aldosterone, 17-HP, androstenedione, DHEA-S); type: in vivo, human
Protocol: as §1

gonadotrophin release = experiment: Serum pituitary hormones, trial 1 (ACTH, LH, FSH); type: in vivo, human; conditions: for scaled FSH: percentage change of scaled geometric mean relative to placebo / scaled LH: percentage change of scaled geometric mean relative to placebo: 3 mg
Protocol: as §1

[3] = test system: steroid response to ACTH challenge; experiment: ACTH stimulation test (synacthen), trial 1 study day 10; type: in vivo, human; conditions: 3 mg, 30 and 60 min after ACTH
Protocol: (§2) Summary Two multiple-dose studies were conducted in healthy post-menopausal female volunteers to investigate the pharmacokinetics and effects on endocrinology of Arimidex (ZD1033). Volunteers in the first trial were dosed with 3 mg of ZD1033 daily over 10 days to assess the effects on endocrinology of ZD1033 and establish the pharmacokinetic profile. In the second trial volunteers received 14 daily doses of either 0.5 or 1.0 mg of ZD1033 to assess the pharmacokinetics of ZD1033 and the effects of low doses of ZD1033 on serum oestradiol concentrations. […] Keywords: Arimidex; aromatase inhibitor; oestrogen Breast cancer is the most common type of cancer in women, accounting for 10% of all female cancers. […] ZD1033 is an achiral benzyltriazole derivative, 2,2[5-(1 H- 12,4-triazol- I -ylmethyl)- 1,3-phenylene] bis (2- methyl-propriononitrile) (Figure 1). […] ZD1033 is currently being evaluated in identical phase III efficacy and tolerability studies vs megestrol acetate in post- menopausal women with advanced breast cancer in the USA and Europe. This paper describes two studies that investigated the pharmacokinetic profile, selectivity, tolerability and efficacy in oestradiol suppression of multiple doses of ZD1033. The objective of the studies was to determine the minimum dose required for maximal suppression of circulating oestradiol, while retaining selectivity for the aromatase enzyme. […]

[4] = human, in vivo
Protocol: as §2

clinical = conditions: female, human, plasma, oral; for half-life: mean half-life
aromatase [5] = target: T1, aromatase; conditions: cited from earlier work
[6] = cited from earlier work
[7] = test system: adrenal gland steroidogenesis; conditions: cited from earlier work
[8] = 3 mg vs placebo, not statistically significant

CC(C)(C#N)c1cc(Cn2cncn2)cc(C(C)(C)C#N)c1 [ZD1033, 2,2[5-(1 H-12,4-triazol-I -ylmethyl)-1,3-phenylene] bis (2-methyl-propriononitrile)]
reduction in serum oestradiol levels (to the limit of detection of the available assay) (aromatase [1]; 1 mg daily p.o.): > 80%
reduction in concentration of serum oestradiol of baseline following multiple dosing (aromatase [1]; all three doses (0.5, 1.0, 3 mg daily)): approximately 80%
minimal dose required for maximal suppression of oestradiol (aromatase [1]; from number of volunteers below assay limit of detection 24 h after last dose): 1.0 mg
decrease of oestradiol concentration compared with placebo values (aromatase [1]; trial 1, 3 mg daily days 4-10, by day 8, P = 0.004): approximately 80%
oestradiol suppression compared with placebo values (aromatase [1]; trial 1, 3 mg, 24 h after the last dose): 70%
reduction of mean serum oestradiol concentration compared with placebo (aromatase [1]; trial 1, 3 mg, by 48 h after the first dose, P = 0.001): approximately 70%
recovery of serum oestradiol after first dose (aromatase [1]; trial 1, single 3 mg dose, up to 72 h): no recovery apparent by 72 h
reduction of mean scaled oestradiol AUC 24 h after dosing on days 1-14 (aromatase [1]; trial 2, 0.5 mg daily): 82%
women with serum oestradiol below the limit of detection of the assay (aromatase [1]; trial 2, 0.5 mg daily, 24 h after the last dose): one out of six
mean post last dose oestradiol concentration (aromatase [1]; trial 2, 0.5 mg daily, baseline mean 46 pmol l-1): 5.9 pmol/L
mean BS oestradiol concentration 24 h after dosing on days 13 and 14, adjusted geometric mean (aromatase [1]; trial 2, 0.5 mg daily): 0.156
BS oestradiol AUC days 1-14, adjusted geometric mean (aromatase [1]; trial 2, 0.5 mg daily): 0.175
mean post-dose scaled oestradiol suppression compared with baseline (aromatase [1]; trial 2, 0.5 mg daily): 84%
reduction of mean scaled oestradiol AUC 24 h after dosing on days 1-14 (aromatase [1]; trial 2, 1.0 mg daily): 84%
women with serum oestradiol below the limit of detection of the assay (aromatase [1]; trial 2, 1 mg daily, 24 h after the last dose): five out of seven
mean post last dose oestradiol concentration (aromatase [1]; trial 2, 1.0 mg daily, baseline mean 28 pmol l-1): 3.2 pmol/L
mean BS oestradiol concentration 24 h after dosing on days 13 and 14, adjusted geometric mean (aromatase [1]; trial 2, 1.0 mg daily): 0.138
BS oestradiol AUC days 1-14, adjusted geometric mean (aromatase [1]; trial 2, 1.0 mg daily): 0.160
mean post-dose scaled oestradiol suppression compared with baseline (aromatase [1]; trial 2, 1.0 mg daily): 86%
duration of suppression of mean oestradiol concentrations (aromatase [1]; trial 2, 0.5 and 1 mg daily for 14 days): remained suppressed from 3 h after the first dose to 6 days after the last dose
treatment effect (ratio 0.5 - 1.0 mg), BS oestradiol AUC days 1-14 (aromatase [1]; trial 2, 95% confidence (0.52, 2.30), P 0.794): 1.09
treatment effect (ratio 0.5 - 1.0 mg), mean BS oestradiol days 13 and 14 (aromatase [1]; trial 2, 95% confidence (0.55, 2.33), P 0.713): 1.13
recovery in oestradiol after the last dose (aromatase [1]; up to 144 h after the last dose): no recovery
scaled oestrone: percentage reduction in geometric mean relative to placebo (aromatase [2]; 96 h after dose on day 10): 39.7%
scaled oestrone: percentage reduction in geometric mean relative to placebo (aromatase [2]; Day 2): 36.2%
scaled oestrone: percentage reduction in geometric mean relative to placebo (aromatase [2]; Day 3): 29.4%
scaled oestrone: percentage reduction in geometric mean relative to placebo (aromatase [2]; Day 4): 34.6%
scaled oestrone: percentage reduction in geometric mean relative to placebo (aromatase [2]; Day 6): 41.1%
scaled oestrone: percentage reduction in geometric mean relative to placebo (aromatase [2]; Day 8): 34.8%
scaled oestrone: percentage reduction in geometric mean relative to placebo (aromatase [2]; Day 10): 44.9%
maximal suppression of mean serum oestrone compared with placebo values (aromatase [2]; from study day 6 onwards): approximately 40%
recovery of serum oestrone after the last dose (aromatase [2]; up to 96 h after the last dose): no recovery apparent by 96 h after the last dose
alteration in mean serum concentration of DHEA-S relative to placebo (adrenal steroidogenesis; 3 mg): No clinically significant alterations
change in mean serum concentration of cortisol (adrenal steroidogenesis; 3 mg vs placebo): No statistically significant changes
change in mean serum concentration of 17-HP (adrenal steroidogenesis; [8]): no consistent changes
change in mean serum concentration of aldosterone (adrenal steroidogenesis; [8]): no consistent changes
change in mean serum concentration of androstenedione (adrenal steroidogenesis; [8]): no consistent changes
scaled 17-HP: percentage change of scaled geometric mean relative to placebo (adrenal steroidogenesis; 3 mg, Day 1, 3 h after dose): -26.9%
scaled aldosterone: percentage change of scaled geometric mean relative to placebo (adrenal steroidogenesis; 3 mg, Day 1, 3 h after dose): -12.9%
scaled 17-HP: percentage change of scaled geometric mean relative to placebo (adrenal steroidogenesis; 3 mg, Day 10, 3 h after dose): 48.9%
scaled aldosterone: percentage change of scaled geometric mean relative to placebo (adrenal steroidogenesis; 3 mg, Day 10, 3 h after dose): 21.0%
scaled 17-HP: percentage change of scaled geometric mean relative to placebo (adrenal steroidogenesis; 3 mg, Day 10, pre-dose): 3.8%
scaled aldosterone: percentage change of scaled geometric mean relative to placebo (adrenal steroidogenesis; 3 mg, Day 10, pre-dose): 24.6%
effect on ACTH, LH or FSH (gonadotrophin release; 3 mg vs placebo): None of the data suggested an effect
scaled FSH: percentage change of scaled geometric mean relative to placebo (gonadotrophin release; Day 1, 3 h after dose): 0.01%
scaled LH: percentage change of scaled geometric mean relative to placebo (gonadotrophin release; Day 1, 3 h after dose): -9.5%
scaled FSH: percentage change of scaled geometric mean relative to placebo (gonadotrophin release; Day 10, 3 h after dose): -3.4%
scaled LH: percentage change of scaled geometric mean relative to placebo (gonadotrophin release; Day 10, 3 h after dose): 12.2%
scaled FSH: percentage change of scaled geometric mean relative to placebo (gonadotrophin release; Day 10, pre-dose): 1.54%
scaled LH: percentage change of scaled geometric mean relative to placebo (gonadotrophin release; Day 10, pre-dose): -9.3%
difference of 17-HP after ACTH stimulation from values obtained on placebo [3]: up to 12%
difference of cortisol after ACTH stimulation from values obtained on placebo [3]: up to 12%
changes in blood pressure, pulse rate or ECG [4]: no evidence of changes
Cmax (clinical; 0.5 mg): 5.97 ng/mL
Tmax (clinical; 0.5 mg): 2 h
half-life (clinical; 0.5 mg): 45.7 h
Cmax (clinical; 1 mg): 13.7 ng/mL
Tmax (clinical; 1 mg): 2 h
half-life (clinical; 1 mg): 40.6 h
Tmax (clinical; 3 mg): 3 h
half-life (clinical; 3 mg, after the first dose of 3 mg): 50.7 h
half-life (clinical; 3 mg, after the last dose of 3 mg): 45.4 h

C[C@]12CCC(=O)C(O)=C1CC[C@@H]1[C@@H]2CC[C@]2(C)C(=O)CC[C@@H]12 [formestane]
oestradiol suppression (aromatase [5]; in vivo): 49- 64%
adverse reactions ([6]; 250 mg i.m. once every 2 weeks, ref Hoffken et al., 1993): injection site reactions

N#Cc1ccc(C(c2ccc(C#N)cc2)n2cncn2)cc1 [letrozole]
reduction in oestradiol levels (aromatase [5]; ref Iveson et al., 1993): up to 86%
selectivity: interference with adrenal steroidogenesis ([7]; in vivo): no reports of letrozole interfering

CCC1(c2ccc(N)cc2)CCC(=O)NC1=O (centres unmarked) [aminoglutethimide]
selectivity for the aromatase enzyme ([7]; 250 mg q.i.d., also inhibits adrenal gland steroidogenesis, ref Lonning and Johannessen, 1991): non-selective
toxicity ([6]; ref Lonning and Johannessen, 1991): marked toxicity
